Values quoted from earlier work in patent US20030216407A1, “Use of PDE5 inhibitors in the treatment of scarring” (Pfizer Inc., priority 2002, published 2003).

Tests used:
[1] = test system: normal rat kidney fibroblast collagen synthesis; settings: in vitro
[2] = test system: adult cardiac fibroblasts; settings: substance on its own
PDE6 against PDE5 = settings: more potent against PDE6 than against PDE5

Compound	collagen synthesis induced by CTGF [1]	regulating cardiac fibroblast proliferation [2]	potency against PDE6 relative to PDE5 (PDE6 against PDE5)
Nc1nc2c(ncn2[C@@H]2O[C@@H]3COP(=O)(O)O[C@H]3[C@H]2O)c(=O)[nH]1 [cGMP]	no effect	–	–
CCCOc1ccccc1-c1nc2nn[nH]c2c(=O)[nH]1 [zaprinast]	–	no effect	five fold
atrial natriurectic peptide [ANP]	–	did not on its own regulate	–
